Measurements published in PubChem BioAssay AID2060483 (Molecular Pharmacology Branch, DTP, NCI, 2025).

Test system: K24384-001-R-PDC complex spheroids, viability
Assay: Anticancer human tumor K24384-001-R-PDC patient-derived pancreatic adenocarcinoma cell line growth inhibition [GQUAD]
Conditions: for IC50: curve of first compound; for viability, T/C: stronger effect = lower value
Method in brief: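 Multi-cell-type spheroids of tumor cells with HUVEC and mesenchymal stem cells, treated with drug combinations. Concentrations descend in half-log steps from near clinical Cmax, or from 10 microM where Cmax is unknown; viability read-out.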

[1] = second compound 0.0316 µM, first compound 0.0316 µM
[2] = second compound 0.0316 µM, first compound 0.1 µM
[3] = second compound 0.0316 µM, first compound 0.316 µM
[4] = second compound 0.0316 µM, first compound 1 µM
[5] = second compound 0.0316 µM, first compound 3.16 µM
[6] = second compound 0.0316 µM, first compound 10 µM
[7] = second compound 0.1 µM, first compound 0.0316 µM
[8] = second compound 0.1 µM, first compound 0.1 µM
[9] = second compound 0.1 µM, first compound 0.316 µM
[10] = second compound 0.1 µM, first compound 1 µM
[11] = second compound 0.1 µM, first compound 3.16 µM
[12] = second compound 0.1 µM, first compound 10 µM
[13] = second compound 0.316 µM, first compound 0.0316 µM
[14] = second compound 0.316 µM, first compound 0.1 µM
[15] = second compound 0.316 µM, first compound 0.316 µM
[16] = second compound 0.316 µM, first compound 1 µM
[17] = second compound 0.316 µM, first compound 3.16 µM
[18] = second compound 0.316 µM, first compound 10 µM
[19] = second compound 1 µM, first compound 0.0316 µM
[20] = second compound 1 µM, first compound 0.1 µM
[21] = second compound 1 µM, first compound 0.316 µM
[22] = second compound 1 µM, first compound 1 µM
[23] = second compound 1 µM, first compound 3.16 µM
[24] = second compound 1 µM, first compound 10 µM
[25] = second compound 3.16 µM, first compound 0.0316 µM
[26] = second compound 3.16 µM, first compound 0.1 µM
[27] = second compound 3.16 µM, first compound 0.316 µM
[28] = second compound 3.16 µM, first compound 1 µM
[29] = second compound 3.16 µM, first compound 3.16 µM
[30] = second compound 3.16 µM, first compound 10 µM
[31] = second compound 10 µM, first compound 0.0316 µM
[32] = second compound 10 µM, first compound 0.1 µM
[33] = second compound 10 µM, first compound 0.316 µM
[34] = second compound 10 µM, first compound 1 µM
[35] = second compound 10 µM, first compound 3.16 µM
[36] = second compound 10 µM, first compound 10 µM
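Further: spheroids exposed to compounds for seven days.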

`C#Cc1c(F)ccc2cc(O)cc(-c3ncc4c(N5CC6CCC(C5)N6)nc(OCC56CCCN5CC(F)C6)nc4c3F)c12` (stereo unspecified) + Cc1[nH]c2ccc(F)cc2c1-c1nc2c3cccnc3c3ncccc3c2[nH]1 was tested, and the IC50 (second compound 0.0316 µM) was 1360 nM, the IC50 (second compound 0.1 µM) was 1490 nM and the IC50 (second compound 0.316 µM) was 1540 nM. For the same molecule, the IC50 (second compound 1 µM) was 1820 nM, the IC50 (second compound 3.16 µM) was 969 nM and the IC50 (second compound 10 µM) was 1080 nM. For the same molecule, the viability, T/C [1] was 99.9%, the viability, T/C [2] was 99.6% and the viability, T/C [3] was 129%. For the same molecule, the viability, T/C [4] was 58.5%, the viability, T/C [5] was 34.4% and the viability, T/C [6] was 18.2%. The viability, T/C [7] was 93.9%, the viability, T/C [8] was 112% and the viability, T/C [9] was 85.1%. The viability, T/C [10] was 58%, the viability, T/C [11] was 34.3% and the viability, T/C [12] was 14.5%. It also gave a viability, T/C [13] of 97.1%, a viability, T/C [14] of 101% and a viability, T/C [15] of 74.4%. It also gave a viability, T/C [16] of 57.4%, a viability, T/C [17] of 39.2% and a viability, T/C [18] of 19.1%. The viability, T/C [19] was 91%, the viability, T/C [20] was 101% and the viability, T/C [21] was 83%. The viability, T/C [22] was 64.1%, the viability, T/C [23] was 37.5% and the viability, T/C [24] was 16.9%. For the same molecule, the viability, T/C [25] was 75.6%, the viability, T/C [26] was 87.6% and the viability, T/C [27] was 64.7%. The viability, T/C [28] was 47.1%, the viability, T/C [29] was 31.3% and the viability, T/C [30] was 11.7%. The viability, T/C [31] was 80.5%, the viability, T/C [32] was 68.6% and the viability, T/C [33] was 69%. The viability, T/C [34] was 52.4%, the viability, T/C [35] was 27.5% and the viability, T/C [36] was 10.8%.

`CC(=O)O[C@H]1C(=O)[C@@]2(C)[C@H]([C@H](OC(=O)c3ccccc3)[C@]3(O)C[C@H](OC(=O)[C@H](O)[C@@H](NC(=O)c4ccccc4)c4ccccc4)C(C)=C1C3(C)C)[C@]1(OC(C)=O)CO[C@@H]1C[C@@H]2O` + Cc1[nH]c2ccc(F)cc2c1-c1nc2c3cccnc3c3ncccc3c2[nH]1 gave an IC50 (second compound 0.0316 µM) of less than 31.6 nM, an IC50 (second compound 0.1 µM) of less than 31.6 nM and an IC50 (second compound 0.316 µM) of less than 31.6 nM. The IC50 (second compound 1 µM) was less than 31.6 nM, the IC50 (second compound 3.16 µM) was less than 31.6 nM and the IC50 (second compound 10 µM) was less than 31.6 nM. The viability, T/C [1] was 31.8%, the viability, T/C [2] was 25% and the viability, T/C [3] was 21.2%. For the same molecule, the viability, T/C [4] was 16.8%, the viability, T/C [5] was 24.9% and the viability, T/C [6] was 28.7%. For the same molecule, the viability, T/C [7] was 42.4%, the viability, T/C [8] was 23.7% and the viability, T/C [9] was 19.6%. It also gave a viability, T/C [10] of 18.7%, a viability, T/C [11] of 22.7% and a viability, T/C [12] of 27.1%. The viability, T/C [13] was 40%, the viability, T/C [14] was 28.3% and the viability, T/C [15] was 18.6%. The viability, T/C [16] was 22.3%, the viability, T/C [17] was 24.5% and the viability, T/C [18] was 29.1%. The viability, T/C [19] was 38.1%, the viability, T/C [20] was 28.2% and the viability, T/C [21] was 18.5%. For the same molecule, the viability, T/C [22] was 26.1%, the viability, T/C [23] was 31.6% and the viability, T/C [24] was 31.4%. The viability, T/C [25] was 34.6%, the viability, T/C [26] was 18.9% and the viability, T/C [27] was 18.5%. For the same molecule, the viability, T/C [28] was 16.7%, the viability, T/C [29] was 22.9% and the viability, T/C [30] was 18.1%. The viability, T/C [31] was 27.6%, the viability, T/C [32] was 23.2% and the viability, T/C [33] was 24.1%. The viability, T/C [34] was 15.4%, the viability, T/C [35] was 22.2% and the viability, T/C [36] was 23.1%.

`O=c1[nH]cc(F)c(=O)[nH]1` + Cc1[nH]c2ccc(F)cc2c1-c1nc2c3cccnc3c3ncccc3c2[nH]1 gave an IC50 (second compound 0.0316 µM) of 4360 nM, an IC50 (second compound 0.1 µM) greater than 10000 nM and an IC50 (second compound 0.316 µM) of 1180 nM. It also gave an IC50 (second compound 1 µM) of 3090 nM, an IC50 (second compound 3.16 µM) of 479 nM and an IC50 (second compound 10 µM) of 581 nM. For the same molecule, the viability, T/C [1] was 98.4%, the viability, T/C [2] was 77.9% and the viability, T/C [3] was 76.1%. The viability, T/C [4] was 55.5%, the viability, T/C [5] was 54.9% and the viability, T/C [6] was 44.4%. It also gave a viability, T/C [7] of 88.4%, a viability, T/C [8] of 92.7% and a viability, T/C [9] of 86.8%. It also gave a viability, T/C [10] of 55.6%, a viability, T/C [11] of 62.4% and a viability, T/C [12] of 39.6%. It also gave a viability, T/C [13] of 97%, a viability, T/C [14] of 90.9% and a viability, T/C [15] of 66.3%. For the same molecule, the viability, T/C [16] was 53.3%, the viability, T/C [17] was 43.2% and the viability, T/C [18] was 39.9%. For the same molecule, the viability, T/C [19] was 88.2%, the viability, T/C [20] was 93.1% and the viability, T/C [21] was 66.7%. It also gave a viability, T/C [22] of 59.9%, a viability, T/C [23] of 54.8% and a viability, T/C [24] of 36.3%. For the same molecule, the viability, T/C [25] was 69.4%, the viability, T/C [26] was 56.5% and the viability, T/C [27] was 51.9%. For the same molecule, the viability, T/C [28] was 53%, the viability, T/C [29] was 35.5% and the viability, T/C [30] was 43%. The viability, T/C [31] was 65.3%, the viability, T/C [32] was 53.6% and the viability, T/C [33] was 62.3%. For the same molecule, the viability, T/C [34] was 40.7%, the viability, T/C [35] was 33.8% and the viability, T/C [36] was 31.7%.
